Data as given in patent publication US20140348819A1, “Methods of Treating Cancer” (Dana-Farber Cancer Institute, Inc., priority 2011, published 2014).

Test system: six V600E BRAF melanoma cell lines
Test: Screening of recombinant RTK ligands for ability to confer resistance to BRAFi (PLX4720) or MEKi (PD184352) (Table 4)
Format: cell-based, human
Parameters: ability of recombinant RTK ligand to confer resistance / ability of recombinant RTK ligand to confer resistance (screening value): scale not given here
Method: HGF is the only one that can substantially confer drug resistance to the cell lines.
The complexity of the tumor microenvironment is much greater than an in vitro co-culture system. Therefore, the inventors explored whether the activation of other RTKs could result in a similar resistance as that observed with the activation of MET. To this end, six V600E BRAF melanoma cell lines were tested for their resistance to either BRAFi (PLX4720) or MEKi (PD184352) after the addition of 22 RTK ligands that have the potential of activating almost all known RTKs. […] The activation of a selected subset of these RTKs was confirmed by western blotting and by high throughput tyrosine kinase phosphorylation profiling.

## Collagen II
A2058, PD184352 - 1 uM, ligand 6.25 ng/ml
  ability of recombinant RTK ligand to confer resistance: 0.97
A2058, PD184352 - 1 uM, ligand 25 ng/ml
  ability of recombinant RTK ligand to confer resistance: 0.97
A2058, PD184352 - 1 uM, ligand 100 ng/ml
  ability of recombinant RTK ligand to confer resistance: 0.99
A2058, PD184352 - 1 uM, ligand 400 ng/ml
  ability of recombinant RTK ligand to confer resistance: 1.00
A2058, PD184352 - 1 uM, ligand 1600 ng/ml
  ability of recombinant RTK ligand to confer resistance: 0.92
A2058, PLX4720 - 2 uM, ligand 6.25 ng/ml
  ability of recombinant RTK ligand to confer resistance: 0.95
A2058, PLX4720 - 2 uM, ligand 25 ng/ml
  ability of recombinant RTK ligand to confer resistance: 0.99
A2058, PLX4720 - 2 uM, ligand 100 ng/ml
  ability of recombinant RTK ligand to confer resistance: 0.96
A2058, PLX4720 - 2 uM, ligand 400 ng/ml
  ability of recombinant RTK ligand to confer resistance: 0.95
A2058, PLX4720 - 2 uM, ligand 1600 ng/ml
  ability of recombinant RTK ligand to confer resistance: 0.96
C32, PD184352 - 1 uM, ligand 6.25 ng/ml
  ability of recombinant RTK ligand to confer resistance: 0.99
C32, PD184352 - 1 uM, ligand 25 ng/ml
  ability of recombinant RTK ligand to confer resistance: 1.03
C32, PD184352 - 1 uM, ligand 100 ng/ml
  ability of recombinant RTK ligand to confer resistance: 1.06
C32, PD184352 - 1 uM, ligand 400 ng/ml
  ability of recombinant RTK ligand to confer resistance: 1.18
C32, PD184352 - 1 uM, ligand 1600 ng/ml
  ability of recombinant RTK ligand to confer resistance: 1.14
C32, PLX4720 - 2 uM, ligand 6.25 ng/ml
  ability of recombinant RTK ligand to confer resistance: 1.03
C32, PLX4720 - 2 uM, ligand 25 ng/ml
  ability of recombinant RTK ligand to confer resistance: 0.99
C32, PLX4720 - 2 uM, ligand 100 ng/ml
  ability of recombinant RTK ligand to confer resistance: 0.99
C32, PLX4720 - 2 uM, ligand 400 ng/ml
  ability of recombinant RTK ligand to confer resistance: 1.00
C32, PLX4720 - 2 uM, ligand 1600 ng/ml
  ability of recombinant RTK ligand to confer resistance: 1.02
Colo 829, PD184352 - 1 uM, ligand 6.25 ng/ml
  ability of recombinant RTK ligand to confer resistance: 0.95
Colo 829, PD184352 - 1 uM, ligand 25 ng/ml
  ability of recombinant RTK ligand to confer resistance: 1.02
Colo 829, PD184352 - 1 uM, ligand 100 ng/ml
  ability of recombinant RTK ligand to confer resistance: 1.04
Colo 829, PD184352 - 1 uM, ligand 400 ng/ml
  ability of recombinant RTK ligand to confer resistance: 1.02
Colo 829, PD184352 - 1 uM, ligand 1600 ng/ml
  ability of recombinant RTK ligand to confer resistance: 0.99
Colo 829, PLX4720 - 2 uM, ligand 6.25 ng/ml
  ability of recombinant RTK ligand to confer resistance: 1.00
Colo 829, PLX4720 - 2 uM, ligand 25 ng/ml
  ability of recombinant RTK ligand to confer resistance: 1.13
Colo 829, PLX4720 - 2 uM, ligand 100 ng/ml
  ability of recombinant RTK ligand to confer resistance: 1.06
Colo 829, PLX4720 - 2 uM, ligand 400 ng/ml
  ability of recombinant RTK ligand to confer resistance: 1.02
Colo 829, PLX4720 - 2 uM, ligand 1600 ng/ml
  ability of recombinant RTK ligand to confer resistance: 0.98
G-361, PD184352 - 1 uM, ligand 6.25 ng/ml
  ability of recombinant RTK ligand to confer resistance: 0.96
G-361, PD184352 - 1 uM, ligand 25 ng/ml
  ability of recombinant RTK ligand to confer resistance: 1.00
G-361, PD184352 - 1 uM, ligand 100 ng/ml
  ability of recombinant RTK ligand to confer resistance: 0.96
G-361, PD184352 - 1 uM, ligand 400 ng/ml
  ability of recombinant RTK ligand to confer resistance: 1.01
G-361, PD184352 - 1 uM, ligand 1600 ng/ml
  ability of recombinant RTK ligand to confer resistance: 1.03
G-361, PLX4720 - 2 uM, ligand 6.25 ng/ml
  ability of recombinant RTK ligand to confer resistance: 0.97
G-361, PLX4720 - 2 uM, ligand 25 ng/ml
  ability of recombinant RTK ligand to confer resistance: 0.91
G-361, PLX4720 - 2 uM, ligand 100 ng/ml
  ability of recombinant RTK ligand to confer resistance: 0.92
G-361, PLX4720 - 2 uM, ligand 400 ng/ml
  ability of recombinant RTK ligand to confer resistance: 0.96
G-361, PLX4720 - 2 uM, ligand 1600 ng/ml
  ability of recombinant RTK ligand to confer resistance: 0.92
SK-MEL-5, PD184352 - 1 uM, ligand 6.25 ng/ml
  ability of recombinant RTK ligand to confer resistance: 0.96
SK-MEL-5, PD184352 - 1 uM, ligand 25 ng/ml
  ability of recombinant RTK ligand to confer resistance: 0.92
SK-MEL-5, PD184352 - 1 uM, ligand 100 ng/ml
  ability of recombinant RTK ligand to confer resistance: 0.94
SK-MEL-5, PD184352 - 1 uM, ligand 400 ng/ml
  ability of recombinant RTK ligand to confer resistance: 0.99
SK-MEL-5, PD184352 - 1 uM, ligand 1600 ng/ml
  ability of recombinant RTK ligand to confer resistance: 0.94
SK-MEL-5, PLX4720 - 2 uM, ligand 6.25 ng/ml
  ability of recombinant RTK ligand to confer resistance: 1.03
SK-MEL-5, PLX4720 - 2 uM, ligand 25 ng/ml
  ability of recombinant RTK ligand to confer resistance: 1.10
SK-MEL-5, PLX4720 - 2 uM, ligand 100 ng/ml
  ability of recombinant RTK ligand to confer resistance: 1.06
SK-MEL-5, PLX4720 - 2 uM, ligand 400 ng/ml
  ability of recombinant RTK ligand to confer resistance: 1.00
SK-MEL-5, PLX4720 - 2 uM, ligand 1600 ng/ml
  ability of recombinant RTK ligand to confer resistance: 1.08
SK-MEL-28, PD184352 - 1 uM, ligand 6.25 ng/ml
  ability of recombinant RTK ligand to confer resistance: 0.98
SK-MEL-28, PD184352 - 1 uM, ligand 25 ng/ml
  ability of recombinant RTK ligand to confer resistance: 1.10
SK-MEL-28, PD184352 - 1 uM, ligand 100 ng/ml
  ability of recombinant RTK ligand to confer resistance: 0.98
SK-MEL-28, PD184352 - 1 uM, ligand 400 ng/ml
  ability of recombinant RTK ligand to confer resistance: 0.94
SK-MEL-28, PD184352 - 1 uM, ligand 1600 ng/ml
  ability of recombinant RTK ligand to confer resistance: 1.07
SK-MEL-28, PLX4720 - 2 uM, ligand 6.25 ng/ml
  ability of recombinant RTK ligand to confer resistance: 0.94
SK-MEL-28, PLX4720 - 2 uM, ligand 25 ng/ml
  ability of recombinant RTK ligand to confer resistance: 1.12
SK-MEL-28, PLX4720 - 2 uM, ligand 100 ng/ml
  ability of recombinant RTK ligand to confer resistance: 0.98
SK-MEL-28, PLX4720 - 2 uM, ligand 400 ng/ml
  ability of recombinant RTK ligand to confer resistance: 0.95
SK-MEL-28, PLX4720 - 2 uM, ligand 1600 ng/ml
  ability of recombinant RTK ligand to confer resistance: 0.96
